In experiment [1] the test system is anti-HIV-1 group O antibodies present in human serum. The experiment can be described thus: Antibody capture format: peptide on solid phase, bound antibody detected with peptide-HRP conjugate. It is filed as binding. Particulars: same peptide as Ag and as HRP conjugate (1:100). How it is done: In peptide 147-5, the N-terminal glycine was added to function as a spacer group, while the arginine in position 2 was added to enhance the solubility of the peptide in aqueous buffers. Both of these peptides were evaluated for their ability to be recognized by HIV-1 group O serum samples in an antibody capture format. In general, in such an assay, a peptide is bound to a solid phase and bivalent antibody presents in a sample binds to the peptide linked thereto. Bound antibody is subsequently detected using a conjugate made of the peptide in question coupled to horseradish peroxidase. The peptide-HRP conjugate binds to antibody which in turn is bound to the solid phase linked peptide. Methods suitable for preparing such conjugates may be found readily in the scientific literature and are well known to those versed in the art.
Microwell plates were pre-coated with either peptide 147-4 or 147-5. A dilution of a serum sample was then incubated for 1 hour at 37° C., after which the plate was washed extensively. A 1:100 dilution of either peptide 147-4 or 147-5 conjugated to HRP was then added and allowed to incubate for an additional hour at 37° C. Following this incubation, the plates were again thoroughly washed. The presence of bound conjugate was detected by addition of substrate for HRP (O-phenylenediamine) and H2O2.
The peptides were evaluated for their ability to be recognized by anti-HIV-1 group O antibodies present in human serum from infected individuals. All group O samples were confirmed to be positive for HIV-1 group O by reverse transcriptase-polymerase chain reaction (RT-PCR) amplification of viral gp41 sequences using O-specific primers. The identity of the PCR product was further confirmed by DNA sequencing.

The subject of experiment [2] is antibodies to HIV-1 group O. The experiment can be described thus: Chemiluminescent ELISA: serially diluted peptide on streptavidin-coated wells, serum ODS007b 1:60, anti-human IgG:HRP, luminol. It is filed as binding. Particulars: serum ODS007b 1:60. How it is done:
To compare the performance of peptide 147 to another genuine group O sequence, the peptide corresponding to the ANT70 sequence was synthesized (peptide 80). Peptides 147 and 80 were dissolved at the same concentration, serially diluted, and bound to streptavidin-coated wells. A 1:60 dilution of serum sample ODS007b (see Table 3) was added to all wells and incubated. After washing, an anti-human IgG:HRP conjugate was added, incubated, and the wells again thoroughly washed. In this case, a chemiluminescent substrate was used, consisting of luminol and a peracid salt. The emitted light was quantified using a luminometer. The results are tabulated in Table 4 and shown graphically in FIG. 2.
For orientation: In an ELISA, binding on a coated surface is turned into a signal by an enzyme label.

The subject of a further experiment is group O antibody. In words: ELISA with recombinant antigen coated at 0.5 μg/ml, group O sera, HRP-labeled mouse anti-human IgG. It is filed as binding. How it is done:
Performance of group M/group O “mosaic” constructs for group O antibody detection. The protein expressed as described was coated at a concentration of 0.5 μg/ml into the wells of microtiter plates for evaluation. Following coating of the protein, any remaining binding sites on the plastic were block with bovine serum albumin. Dilutions of group O sera were then tested for their ability to recognize the recombinant antigen. Bound antibodies were detected by incubation with HRP-labeled mouse anti-human IgG conjugate, and the bound conjugate was subsequently detected by addition of OPD and H2O2.

In the next experiment the test system is type B sample. In words: ELISA with recombinant antigen coated at 0.5 μg/ml, type B sample. It is filed as binding, human.

Some results are limits rather than exact numbers.

Turning to “EQQRLNSWGCKGRIICYTSARWH (HIV Consensus) [peptide 147-4, variant of peptide 147]”, the “Optical Density (OD)492” value in experiment [1] (negative control) is 0.010 OD; in experiment [1] (sample ODS001 (1:200)), greater than 2.500 OD; in experiment [1] (sample ODS002 (1:175)) it was 0.785 OD; in experiment [1] (sample ODS006 (1:100)), 0.133 OD; in experiment [1] (sample ODS007 (1:1,500)) it was 0.241 OD.
Taken in the same sequence, the figures for “GRETLMQDQQRLNSWGCKGRIICYTSARWH (HIV Consensus) [peptide 147-5, longer variant of peptide 147 with N-terminal glycine spacer and arginine to enhance solubility]” were 0.022 OD, greater than 2.500 OD, 1.343 OD, 0.266 OD and 0.316 OD.
“NQQLLSLWGCKGKLVCYTSVKWN (Human immunodeficiency virus type 1) [peptide 80, reference compound]”: the luminescent units in experiment [2] (peptide 0.020 ug/ml) is recorded as 0.387 luminescent units; in experiment [2] (peptide 0.039 ug/ml) it was 0.376 luminescent units; in experiment [2] (peptide 0.078 ug/ml), 0.621 luminescent units; in experiment [2] (peptide 0.156 ug/ml) it was 1.288 luminescent units; in experiment [2] (peptide 0.313 ug/ml) it was 2.294 luminescent units; in experiment [2] (peptide 0.625 ug/ml) it was 2.854 luminescent units. Further, the luminescent units in experiment [2] (peptide 1.250 ug/ml) is recorded as 2.908 luminescent units; in experiment [2] (peptide 2.500 ug/ml), 1.821 luminescent units.

B1: DHFR-hES-MH: truncated dihydrofolate reductase fusion, mosaic group M/group O gp41 recombinant antigen with myc sequence and his6 tail (protein)
chain: MRGSGIMVRPLNSIVAVSQNMGIGKNGDLPWPPLRNEFKYFQRMTTTSSVEGKQNLVIMGRKTWFSIPEKNRPLKDRINIVLSRELKEPPRGAHFLAKSLDDALRLIEQPELASKVDMVWIVGGSSVYQEAMNQPGHLRLFVTRIMQEFESDTFFPEIDLGKYKLLPEYPGVLSEVQEEKGIKYKFEVYEKKGSRSARLLLSGIVQQQNNLLRAIEAQQHMLQLTAWGIKQLRARLQALETLMQNQQRLNSWGCKGRIICYTSARWHASWSNKSLEDIWDNMTWMQWDQQVNNVSSIIYDKILEAQDQQEENVRELLELDKWASLWNWFDITNWLWYIKIFIMIVGPEQKLISEEDLNSAVDHHHHHH
modifications: HIV Consensus
With B1, the OD492 with group O antibody (sample ODS001 (dilution)) was 1.179 OD; with group O antibody (sample ODS002 (dilution)), 1.323 OD; in the experiment with group O antibody (sample neg. control 1) it was −0.061 OD; with type B sample, 0.685 OD.

The values are drawn from US20060216699A1, “Peptides for the detection of HIV-1 group O” (priority 1998, published 2006).
